Measured values as given in publication PMC8194371 (Journal of medicinal chemistry, 2021).
In brackets after ≈: the same amount, converted by molar mass. Several values for one entry are separate records, joined by “and”; a condition that tells them apart may be missing. Equal values may be shown once. Read-outs that look alike come from different tables or passages of the source.

Assays:
[1] = tested on: Mtb strain CDC1551 dop::MycoMarT7 expressing pupGGE; test: Accumulation of pupylated proteins; format: cell-based, Mycobacterium tuberculosis
[2] = target: β5c of the human c-20S (Homo sapiens, UniProt P28074); test: human constitutive proteasome β5c inhibition, suc-LLVY-AMC; format: biochemical; details: for SIapp IC50–β5c / IC50–Mtb20S: apparent selectivity index, rounded to three or fewer significant figures
[3] = target: β5i of the human i-20S (Homo sapiens, UniProt P28062); format: biochemical
[4] = tested on: Mtb strain MHD1441 (H37Rv WT + pSCK1); format: cell-based, Mycobacterium tuberculosis; details: 0.1-33 μM, day 4
[5] = tested on: HepG2 cells; test: Viability of HepG2 cells; details: at 30 μM
[6] = Kinetic solubility; format: physicochemical; details: PBS buffer
[7] = target: Mtb20SOG (Mycobacterium tuberculosis, UniProt P9WHT9); test: Mtb20SOG proteasome inhibition, suc-LLVY-AMC hydrolysis; format: biochemical; details: Mtb20S IC50, text values
Sequence of Mtb20SOG (P9WHT9 58-291): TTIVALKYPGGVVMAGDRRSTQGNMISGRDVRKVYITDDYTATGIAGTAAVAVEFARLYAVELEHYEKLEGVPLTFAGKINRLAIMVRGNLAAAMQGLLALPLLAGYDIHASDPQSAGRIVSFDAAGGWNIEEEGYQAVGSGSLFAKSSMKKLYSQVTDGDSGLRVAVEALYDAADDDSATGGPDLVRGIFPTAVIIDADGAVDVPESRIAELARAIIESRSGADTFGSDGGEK

| Compound | SIapp IC50–β5c / IC50–Mtb20S [2] | SIapp IC50–β5i / IC50–Mtb20S [3] | further results |
| --- | --- | --- | --- |
| CC(C)C[C@H](NC(=O)[C@H](CCc1ccccc1)NC(=O)CN1CCOCC1)C(=O)N[C@@H](Cc1ccccc1)C(=O)N[C@@H](CC(C)C)C(=O)[C@@]1(C)CO1 [Carfilzomib, reference compound] |  |  | accumulation of pupylated proteins [1]: led to accumulation of pupylated proteins |
| O=C1CCCCCCCCCC[C@@H](C(=O)NCc2cccc3ccccc23)NC(=O)[C@H](CC(=O)N2CCCC2)N1 [Macrocycle 2] | >674 | >674 |  |
| O=C1CCCCCCCCC[C@@H](C(=O)NCc2cccc3ccccc23)NC(=O)[C@H](CC(=O)N2CCCC2)N1 [Macrocycle 3] | >141 | >141 |  |
| O=C1CCCCCCCCOC[C@@H](C(=O)NCc2cccc3ccccc23)NC(=O)[C@H](CC(=O)N2CCCC2)N1 [Macrocycle 4] | >984 | >984 |  |
| O=C1CCc2cccc(c2)Oc2ccc(cc2)C[C@@H](C(=O)NCc2ccccc2F)NC(=O)[C@H](CC(=O)N2CCCC2)N1 [Macrocycle 5] | >500 |  |  |
| O=C1CCc2cccc(c2)Oc2ccc(cc2)C[C@@H](C(=O)NCc2ccccc2F)NC(=O)[C@H](CC(=O)N2CCC[C@@H]2c2ccccc2)N1 [Macrocycle 6] | >13,600 | >13,600 | selectivity for Mtb20S over human c-20S [2]: > 13,600 fold and > 10,000 fold; selectivity for Mtb20S over human i-20S [3]: > 13,600 fold and > 10,000 fold; Pup-GFP accumulation (RFU normalized by OD) [4]: dose-dependent increase of RFU; accumulation of pupylated proteins ([1]; macrocycle 6 at 1, 3, or 10 μM for 48 h, CFZ at 50 μM): dose-dependently promoted the accumulation of pupylated proteins; cytotoxicity toward HepG2 [5]: no appreciable cytotoxicity |
| O=C1CCCCCCCCOC[C@@H](C(=O)NCc2ccccc2F)NC(=O)[C@H](CC(=O)N2CCC[C@@H]2c2ccccc2)N1 [Macrocycle 9] | >14,000 | >14,000 | solubility at 24 h ([6]; pH 6.8): 1.4 µg/mL (≈ 2.35 µM); solubility at 24 h ([6]; pH 6.8, aqueous buffer, kinetic from dmso stock): < 1.4 µg/mL |
| O=C1CCc2cccc(c2)OCCCC[C@@H](C(=O)NCc2ccccc2F)NC(=O)[C@H](CC(=O)N2CCC[C@@H]2c2ccccc2)N1 [Macrocycle 10] | >14,400 | >14,400 | selectivity for Mtb20S over human c-20S [2]: > 14,400 fold; selectivity for Mtb20S over human i-20S [3]: > 14,400 fold; Pup-GFP accumulation (RFU normalized by OD) [4]: dose-dependent increase of RFU; cytotoxicity toward HepG2 [5]: no appreciable cytotoxicity |
| O=C1CCc2cccc(c2)OCCCC[C@@H](C(=O)NCc2ccccc2F)NC(=O)[C@H](CC(=O)N2CCC[C@@H]2C2CC2)N1 [Macrocycle 11] |  |  | IC50 [7]: 6.5 nM |
